Here are results for five compounds from article PMC9217576, “Urease and α-Chymotrypsin Inhibitory Activities and Molecular Docking Studies of Alkaloids Isolated from Medicinal Plant Isatis minima Bunge” (Evidence-based Complementary and Alternative Medicine : eCAM, 2022).

Assay type in all cases: biochemical
The target in experiment [1] is Bacillus pasteurii urease (Sporosarcina pasteurii, UniProt P41020). Description: In vitro urease inhibition assay (indophenol method). Conditions: for IC50: SEM of five determinations, pH 6.8, 30°C.
In another experiment the target is Jack bean urease (Canavalia ensiformis, UniProt P07374). The experiment in a line: biochemical. The settings on record: for IC50: SEM of five determinations, pH 6.8, 30°C.
The next experiment concerns the target α-chymotrypsin (Bos taurus, UniProt P00766). Description: In vitro chymotrypsin inhibition assay. The settings on record: for IC50: SEM of five determinations, Tris-HCl pH 7.6, 25°C.
Where [2] appears, read: read-out: Urease IC50 ± SEM (Bacillus pasteurii urease).
Setting [3] is: Urease IC50 ± SEM (Jack bean urease).
Where [4] appears, read: Urease IC50 ± SEM (Bacillus pasteurii urease).

Like-named read-outs stand apart in the source and are kept apart here.

Chain of Jack bean urease (P07374 whole entry, looked up): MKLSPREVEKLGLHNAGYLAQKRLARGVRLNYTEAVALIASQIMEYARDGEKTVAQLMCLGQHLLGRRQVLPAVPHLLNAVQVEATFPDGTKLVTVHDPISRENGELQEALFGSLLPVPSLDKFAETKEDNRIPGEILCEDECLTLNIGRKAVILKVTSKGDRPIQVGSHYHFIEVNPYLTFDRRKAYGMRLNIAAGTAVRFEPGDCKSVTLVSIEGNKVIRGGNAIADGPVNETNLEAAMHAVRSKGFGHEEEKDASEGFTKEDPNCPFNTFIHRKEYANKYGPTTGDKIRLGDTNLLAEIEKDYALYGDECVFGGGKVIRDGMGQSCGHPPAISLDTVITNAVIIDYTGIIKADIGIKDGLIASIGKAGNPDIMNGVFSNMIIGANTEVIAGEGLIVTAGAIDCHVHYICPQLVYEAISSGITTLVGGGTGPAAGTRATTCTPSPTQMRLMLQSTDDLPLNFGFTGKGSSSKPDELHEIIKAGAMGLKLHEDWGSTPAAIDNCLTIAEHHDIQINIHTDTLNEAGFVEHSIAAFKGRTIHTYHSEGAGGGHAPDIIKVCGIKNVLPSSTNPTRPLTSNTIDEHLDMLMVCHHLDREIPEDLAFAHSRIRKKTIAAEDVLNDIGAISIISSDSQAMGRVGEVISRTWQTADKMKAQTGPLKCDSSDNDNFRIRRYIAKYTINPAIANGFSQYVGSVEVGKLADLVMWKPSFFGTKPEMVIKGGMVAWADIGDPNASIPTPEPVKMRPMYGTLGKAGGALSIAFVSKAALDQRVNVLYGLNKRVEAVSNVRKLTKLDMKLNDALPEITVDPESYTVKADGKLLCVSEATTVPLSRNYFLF
Chain of Bacillus pasteurii urease (P41022 whole entry): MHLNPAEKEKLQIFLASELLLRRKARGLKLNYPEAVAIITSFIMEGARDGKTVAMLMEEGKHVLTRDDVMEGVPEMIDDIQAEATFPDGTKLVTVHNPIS
Chain of Bacillus pasteurii urease (P41020 whole entry): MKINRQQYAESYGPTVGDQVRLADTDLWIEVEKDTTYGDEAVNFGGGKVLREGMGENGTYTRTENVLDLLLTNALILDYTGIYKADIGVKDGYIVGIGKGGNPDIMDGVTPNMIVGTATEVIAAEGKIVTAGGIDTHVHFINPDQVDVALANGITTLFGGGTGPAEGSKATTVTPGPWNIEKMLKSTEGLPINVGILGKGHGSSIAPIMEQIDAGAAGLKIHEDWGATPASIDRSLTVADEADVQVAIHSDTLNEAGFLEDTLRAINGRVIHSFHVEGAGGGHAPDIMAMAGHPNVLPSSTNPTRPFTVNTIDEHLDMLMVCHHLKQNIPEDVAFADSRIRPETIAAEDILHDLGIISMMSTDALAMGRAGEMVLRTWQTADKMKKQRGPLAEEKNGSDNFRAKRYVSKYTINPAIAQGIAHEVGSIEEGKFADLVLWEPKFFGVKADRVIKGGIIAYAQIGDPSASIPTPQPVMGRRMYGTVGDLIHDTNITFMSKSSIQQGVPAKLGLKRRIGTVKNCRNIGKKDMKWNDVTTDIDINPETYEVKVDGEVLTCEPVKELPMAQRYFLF
Chain of Bacillus pasteurii urease (P41021 whole entry, further chain): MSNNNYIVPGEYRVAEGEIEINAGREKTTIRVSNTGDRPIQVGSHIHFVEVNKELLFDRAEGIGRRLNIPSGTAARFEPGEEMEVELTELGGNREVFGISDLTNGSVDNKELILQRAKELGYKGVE

For orientation: IC50 means the concentration needed to halve the response being measured. Regarding `O=C1C(c2[nH]c3ccccc3c2C2=c3ccccc3=N/C2=C2\Nc3ccccc3C2=O)=Nc2ccccc21` [Bisindigotin], the “inhibitory activity against Bacillus pasteurii urease (in words)” value in experiment [1] is “significant inhibitory activity”. Also, the figures for the IC50 (in experiment [1] (setting [2]); at Jack bean urease (setting [3]); against α-chymotrypsin) were 42.04 ± 0.07 µM, 58.15 ± 0.02 µM and 34.01 ± 0.07 µM, respectively. Moreover, at Jack bean urease, the “inhibitory activity against Jack bean urease (in words)” value is “significant inhibitory activity”. Also, at α-chymotrypsin, the “inhibitory potential against α-chymotrypsin (in words)” value was “moderate inhibitory potential”.
For the compound `O=C1/C(=c2\c3ccccc3n3c(=O)c4ccccc4nc23)Nc2ccccc21` [Candidine], the “inhibitory activity against Bacillus pasteurii urease (in words)” value in experiment [1] is on record as “significant inhibitory activity”. Also, the IC50 in experiment [1] (setting [4]) was determined as 46.12 ± 0.05 µM. For the same compound, on α-chymotrypsin, the “inhibitory potential against α-chymotrypsin (in words)” value is “moderate inhibitory potential” and half-maximal inhibition (IC50) was put at 44.07 ± 0.04 µM.
`COc1cc(C2c3c(c4ccccc4[nH]c3=O)C(=O)N3CCCC23)cc(OC)c1O` (stereo not shown) [Isaindigotidione]: the IC50 turned out to be 20.04 ± 0.09 µM in experiment [1] (setting [2]), 29.03 ± 0.04 µM against Jack bean urease (setting [3]) and 16.09 ± 0.07 µM on α-chymotrypsin.
Consider `COc1cc(/C=C2\CCn3c2nc2ccccc2c3=O)cc(OC)c1O` [Isaindigotone], for which the IC50 came to 26.13 ± 0.08 µM in experiment [1] (setting [2]), 29.03 ± 0.04 µM in experiment [1] (setting [4]), 34.03 ± 0.07 µM at Jack bean urease (setting [3]) and 22.01 ± 0.06 µM on α-chymotrypsin.
Consider `NC(N)=S` [Thiourea, reference compound], for which the results for the IC50 (in experiment [1] (setting [2]); on Jack bean urease (read-out: Urease IC50 ± SEM (Jack bean urease))) were 14.03 ± 0.08 µM and 18.04 ± 0.01 µM, respectively.
